Assay in all cases: KINOMEscan
One test deals with T1, TAK1 (Homo sapiens, UniProt O43318).
T1 construct: purchased Eurofins DiscoverX KINOMEscan
T1 sequence (O43318 1-606): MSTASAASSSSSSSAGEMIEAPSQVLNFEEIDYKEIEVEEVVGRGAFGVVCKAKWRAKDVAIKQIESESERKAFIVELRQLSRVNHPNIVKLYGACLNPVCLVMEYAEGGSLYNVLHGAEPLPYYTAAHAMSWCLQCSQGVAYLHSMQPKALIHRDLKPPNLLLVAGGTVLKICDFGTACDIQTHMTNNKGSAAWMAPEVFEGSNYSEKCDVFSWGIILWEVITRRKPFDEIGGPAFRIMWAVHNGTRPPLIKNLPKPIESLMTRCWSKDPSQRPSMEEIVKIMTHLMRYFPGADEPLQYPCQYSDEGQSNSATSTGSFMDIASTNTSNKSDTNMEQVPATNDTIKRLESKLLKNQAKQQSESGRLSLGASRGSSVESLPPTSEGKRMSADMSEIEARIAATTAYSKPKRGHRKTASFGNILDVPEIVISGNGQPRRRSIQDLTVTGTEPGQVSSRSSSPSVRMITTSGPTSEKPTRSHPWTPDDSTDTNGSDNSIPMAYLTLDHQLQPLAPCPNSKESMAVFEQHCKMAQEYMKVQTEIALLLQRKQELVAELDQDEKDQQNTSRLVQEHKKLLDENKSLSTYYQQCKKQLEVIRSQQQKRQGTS
The test is classed as binding. The note with it: read-out: % control activity remaining.

Another test deals with T2, CAMK1 (Homo sapiens, UniProt Q14012).
T2 construct: purchased Eurofins DiscoverX KINOMEscan
T2 sequence (Q14012 whole entry, looked up): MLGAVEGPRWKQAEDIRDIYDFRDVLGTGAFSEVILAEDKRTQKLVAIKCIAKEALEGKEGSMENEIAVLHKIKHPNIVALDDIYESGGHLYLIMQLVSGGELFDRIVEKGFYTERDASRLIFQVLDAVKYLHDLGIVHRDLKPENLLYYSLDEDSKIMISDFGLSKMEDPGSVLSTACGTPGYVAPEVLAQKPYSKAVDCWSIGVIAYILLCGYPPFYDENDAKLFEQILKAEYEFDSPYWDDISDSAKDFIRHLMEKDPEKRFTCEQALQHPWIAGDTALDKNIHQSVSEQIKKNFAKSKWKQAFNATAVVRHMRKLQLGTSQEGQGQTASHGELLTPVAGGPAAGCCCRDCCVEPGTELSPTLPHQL
It is filed as binding. The following applies: read-out: % control activity remaining.

The next test relates to FLT3(ITD). It is filed as binding, human. The following applies: 1000 nM.
In a further test the target is T3, TNK1 (Homo sapiens, UniProt Q13470).
T3 construct: purchased Eurofins DiscoverX KINOMEscan
T3 sequence (Q13470 1-666): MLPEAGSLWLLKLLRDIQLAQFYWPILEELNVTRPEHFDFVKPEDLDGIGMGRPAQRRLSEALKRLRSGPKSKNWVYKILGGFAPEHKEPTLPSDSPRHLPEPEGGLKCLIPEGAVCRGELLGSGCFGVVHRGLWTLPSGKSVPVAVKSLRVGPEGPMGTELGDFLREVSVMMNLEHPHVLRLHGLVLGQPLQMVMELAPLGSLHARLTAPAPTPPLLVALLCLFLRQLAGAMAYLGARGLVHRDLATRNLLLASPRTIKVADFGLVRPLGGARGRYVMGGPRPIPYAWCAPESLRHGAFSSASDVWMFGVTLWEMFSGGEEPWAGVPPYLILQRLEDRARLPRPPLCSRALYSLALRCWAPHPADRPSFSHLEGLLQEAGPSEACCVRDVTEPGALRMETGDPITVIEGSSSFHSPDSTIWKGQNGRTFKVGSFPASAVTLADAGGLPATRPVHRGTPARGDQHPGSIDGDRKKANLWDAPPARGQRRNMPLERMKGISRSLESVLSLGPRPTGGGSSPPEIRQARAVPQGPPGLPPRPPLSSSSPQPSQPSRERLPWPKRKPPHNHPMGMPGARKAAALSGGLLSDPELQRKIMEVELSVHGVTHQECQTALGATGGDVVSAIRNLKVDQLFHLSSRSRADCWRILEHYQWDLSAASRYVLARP
It is filed as binding. The note with it: read-out: % control activity remaining.

Another test concerns the target T4, EPHA2 (Homo sapiens, UniProt P29317).
T4 construct: purchased Eurofins DiscoverX KINOMEscan
It is filed as binding. The note with it: read-out: % control activity remaining.

A further test addresses T5, GSK3B (Homo sapiens, UniProt P49841).
T5 construct: purchased Eurofins DiscoverX KINOMEscan
It is filed as binding. The following applies: read-out: % control activity remaining.

In the next test the target is T6, PAK4 (Homo sapiens, UniProt O96013).
T6 construct: purchased Eurofins DiscoverX KINOMEscan
T6 sequence (O96013 whole entry): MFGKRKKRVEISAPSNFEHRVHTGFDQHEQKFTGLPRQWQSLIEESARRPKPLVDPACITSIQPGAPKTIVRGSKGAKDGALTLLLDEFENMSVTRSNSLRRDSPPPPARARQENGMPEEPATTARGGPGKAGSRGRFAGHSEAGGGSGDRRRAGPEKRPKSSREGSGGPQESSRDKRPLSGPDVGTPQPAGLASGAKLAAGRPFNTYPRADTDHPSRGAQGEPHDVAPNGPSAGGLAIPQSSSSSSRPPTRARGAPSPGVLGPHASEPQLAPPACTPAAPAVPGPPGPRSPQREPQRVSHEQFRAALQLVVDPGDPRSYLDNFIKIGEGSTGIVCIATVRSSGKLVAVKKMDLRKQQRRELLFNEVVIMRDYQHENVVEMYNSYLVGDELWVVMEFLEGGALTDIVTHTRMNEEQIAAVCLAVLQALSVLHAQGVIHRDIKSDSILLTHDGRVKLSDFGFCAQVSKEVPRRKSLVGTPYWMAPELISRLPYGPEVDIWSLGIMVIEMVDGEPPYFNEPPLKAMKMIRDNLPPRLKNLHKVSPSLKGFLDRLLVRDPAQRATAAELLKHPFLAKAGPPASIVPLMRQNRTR
It is filed as binding. The following applies: read-out: % control activity remaining.

Another test has as its target T7, NEK9 (Homo sapiens, UniProt Q8TD19).
T7 construct: purchased Eurofins DiscoverX KINOMEscan
T7 sequence (Q8TD19 1-979): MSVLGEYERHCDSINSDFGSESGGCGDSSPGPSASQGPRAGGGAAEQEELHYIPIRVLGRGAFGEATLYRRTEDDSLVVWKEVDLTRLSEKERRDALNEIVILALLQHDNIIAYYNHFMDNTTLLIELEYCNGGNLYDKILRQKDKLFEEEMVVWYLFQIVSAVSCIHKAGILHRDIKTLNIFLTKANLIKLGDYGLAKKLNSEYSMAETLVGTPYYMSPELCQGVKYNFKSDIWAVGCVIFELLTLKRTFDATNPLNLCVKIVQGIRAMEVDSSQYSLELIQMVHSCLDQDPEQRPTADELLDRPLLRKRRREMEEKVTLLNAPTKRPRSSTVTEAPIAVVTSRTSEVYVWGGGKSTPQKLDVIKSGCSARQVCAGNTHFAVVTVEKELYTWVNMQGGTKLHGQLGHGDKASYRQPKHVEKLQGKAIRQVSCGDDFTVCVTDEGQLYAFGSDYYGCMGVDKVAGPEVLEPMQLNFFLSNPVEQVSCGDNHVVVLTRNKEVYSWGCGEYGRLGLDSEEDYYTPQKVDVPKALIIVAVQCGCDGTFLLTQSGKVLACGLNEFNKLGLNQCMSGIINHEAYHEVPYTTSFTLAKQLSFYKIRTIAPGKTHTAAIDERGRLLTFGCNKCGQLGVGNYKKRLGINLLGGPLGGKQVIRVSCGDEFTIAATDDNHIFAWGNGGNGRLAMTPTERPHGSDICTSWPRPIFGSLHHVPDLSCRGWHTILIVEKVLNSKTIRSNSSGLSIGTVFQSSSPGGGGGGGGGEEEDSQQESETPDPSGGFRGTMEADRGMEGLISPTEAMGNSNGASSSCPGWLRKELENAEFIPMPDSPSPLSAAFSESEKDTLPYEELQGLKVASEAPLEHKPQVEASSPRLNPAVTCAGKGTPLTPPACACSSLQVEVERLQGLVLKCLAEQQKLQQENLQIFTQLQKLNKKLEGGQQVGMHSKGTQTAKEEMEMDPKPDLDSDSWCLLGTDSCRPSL
It is filed as binding. The note with it: read-out: % control activity remaining.

For another test, the target named is T8, CDK2 (Homo sapiens, UniProt P24941).
T8 construct: purchased Eurofins DiscoverX KINOMEscan
It is filed as binding. The note with it: read-out: % control activity remaining.

Another test has as its target T9, TLK2 (Homo sapiens, UniProt Q86UE8).
T9 construct: purchased Eurofins DiscoverX KINOMEscan
The test is classed as binding. The note with it: read-out: % control activity remaining.

T9 sequence (Q86UE8 whole entry): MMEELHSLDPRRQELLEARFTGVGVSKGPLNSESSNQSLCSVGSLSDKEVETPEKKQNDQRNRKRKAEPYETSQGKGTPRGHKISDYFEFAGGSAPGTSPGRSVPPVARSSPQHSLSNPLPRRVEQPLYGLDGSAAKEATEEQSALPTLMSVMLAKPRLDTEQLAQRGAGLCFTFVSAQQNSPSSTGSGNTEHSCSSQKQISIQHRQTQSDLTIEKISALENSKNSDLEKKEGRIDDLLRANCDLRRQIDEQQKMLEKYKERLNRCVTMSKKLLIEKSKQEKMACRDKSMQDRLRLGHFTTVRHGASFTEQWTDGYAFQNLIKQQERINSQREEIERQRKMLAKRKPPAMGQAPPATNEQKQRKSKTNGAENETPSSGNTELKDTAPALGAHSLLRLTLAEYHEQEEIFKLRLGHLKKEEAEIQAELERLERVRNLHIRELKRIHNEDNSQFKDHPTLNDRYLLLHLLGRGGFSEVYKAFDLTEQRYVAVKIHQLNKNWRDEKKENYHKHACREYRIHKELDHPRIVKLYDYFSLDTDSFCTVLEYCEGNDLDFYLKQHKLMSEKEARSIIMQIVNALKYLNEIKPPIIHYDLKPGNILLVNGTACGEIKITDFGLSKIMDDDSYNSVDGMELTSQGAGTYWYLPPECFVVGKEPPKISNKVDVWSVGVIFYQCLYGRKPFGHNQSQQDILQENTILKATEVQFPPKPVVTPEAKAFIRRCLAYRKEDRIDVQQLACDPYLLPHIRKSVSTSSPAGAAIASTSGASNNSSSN
T4 sequence (P29317 24-976): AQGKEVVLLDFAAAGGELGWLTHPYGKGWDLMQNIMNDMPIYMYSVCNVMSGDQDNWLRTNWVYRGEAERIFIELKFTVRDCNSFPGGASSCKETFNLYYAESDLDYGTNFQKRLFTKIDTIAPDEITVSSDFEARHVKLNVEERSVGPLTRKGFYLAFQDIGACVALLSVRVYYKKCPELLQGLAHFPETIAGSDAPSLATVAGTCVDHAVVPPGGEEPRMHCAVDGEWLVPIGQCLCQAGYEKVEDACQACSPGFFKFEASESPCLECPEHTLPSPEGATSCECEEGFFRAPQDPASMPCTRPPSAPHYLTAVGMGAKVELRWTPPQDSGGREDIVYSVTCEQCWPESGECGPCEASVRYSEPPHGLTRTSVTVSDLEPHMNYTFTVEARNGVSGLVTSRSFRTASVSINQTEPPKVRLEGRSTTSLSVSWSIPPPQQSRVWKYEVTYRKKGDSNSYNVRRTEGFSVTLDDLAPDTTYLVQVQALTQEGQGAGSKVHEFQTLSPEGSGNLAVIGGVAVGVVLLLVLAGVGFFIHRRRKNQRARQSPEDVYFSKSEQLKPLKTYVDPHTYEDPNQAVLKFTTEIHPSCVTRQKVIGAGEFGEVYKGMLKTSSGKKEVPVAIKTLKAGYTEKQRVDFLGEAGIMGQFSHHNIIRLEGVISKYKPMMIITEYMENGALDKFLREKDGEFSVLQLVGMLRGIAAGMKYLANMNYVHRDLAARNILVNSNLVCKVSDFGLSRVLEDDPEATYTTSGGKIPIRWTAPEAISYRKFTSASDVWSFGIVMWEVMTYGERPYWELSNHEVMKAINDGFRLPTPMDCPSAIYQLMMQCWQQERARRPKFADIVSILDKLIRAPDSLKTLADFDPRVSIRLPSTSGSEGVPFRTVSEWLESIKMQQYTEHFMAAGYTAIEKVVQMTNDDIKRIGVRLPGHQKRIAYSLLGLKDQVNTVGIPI
T5 sequence (P49841 whole entry): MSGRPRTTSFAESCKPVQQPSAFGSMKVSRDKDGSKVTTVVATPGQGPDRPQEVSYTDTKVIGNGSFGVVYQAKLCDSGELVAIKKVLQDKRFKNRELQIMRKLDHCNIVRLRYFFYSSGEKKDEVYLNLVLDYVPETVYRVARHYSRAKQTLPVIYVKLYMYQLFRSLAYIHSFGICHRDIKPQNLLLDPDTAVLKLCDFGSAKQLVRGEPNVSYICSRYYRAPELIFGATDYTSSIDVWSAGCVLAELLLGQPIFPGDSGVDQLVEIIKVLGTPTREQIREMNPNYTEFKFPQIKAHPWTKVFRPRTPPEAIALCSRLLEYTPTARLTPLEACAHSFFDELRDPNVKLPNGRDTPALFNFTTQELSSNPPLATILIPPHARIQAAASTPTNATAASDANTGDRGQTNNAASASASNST

With `Clc1cc(NCC2CC2)c2ncc(-c3ccc4[nH]ncc4c3)n2n1` [compound 2, 6-Chloro-N-(cyclopropylmethyl)-3-(1H-indazol-5-yl)imidazo[1,2-b]pyridazin-8-amine], the remaining binding at 1 µM at TAK1 was found to be 91%; on CAMK1 it was 100%; at TNK1 it was 69%; at EPHA2, 94%; at GSK3B, 99%; on PAK4, 79%. Also, the remaining binding at 1 µM was determined as 100% on NEK9, 88% at CDK2 and 98% at TLK2. Besides, the “% control activity remaining” value in the test on FLT3(ITD) was determined as 5.6%.
As for `O=C(CN1CCOCC1)N[C@H]1CC[C@H](Nc2cc(Cl)nn3c(-c4ccc5[nH]ncc5c4)cnc23)CC1` [compound 26], the remaining binding at 1 µM at TAK1 was determined as 47%; at CAMK1, 77%; on TNK1, 100%; at EPHA2, 99%; at GSK3B, 92%; on PAK4, 93%. Moreover, the remaining binding at 1 µM on NEK9 came to 91%; at CDK2, 95%; at TLK2 it was 95%. Besides, in the test with FLT3(ITD), the “% control activity remaining” value was determined as 0.25%.
Turning to `CN1CCC(CNc2cc(Cl)nn3c(-c4cc5nc(Nc6ccccc6)[nH]c5cc4F)cnc23)CC1` [compound 31, 6-Chloro-3-(6-fluoro-2-(phenylamino)-1H-benzo[d]imidazol-5-yl)-N-((1-methylpiperidin-4-yl)methyl)imidazo[1,2-b]pyridazin-8-amine], the remaining binding at 1 µM is 65% at TAK1; 84% at CAMK1; 100% on TNK1; 94% at EPHA2; 96% on GSK3B; 86% on PAK4. Moreover, the remaining binding at 1 µM on NEK9 worked out at 100%; on CDK2, 98%; at TLK2, 89%. The “% control activity remaining” value with FLT3(ITD) turned out to be 91%.
